What was measured:
[1] = system: maize (Zea mays, variety “LORENZO”); assay: Root growth assay, maize; type: in vivo; settings: for Root Growth: wet root weight 16 days post treatment, Root Growth of 100 set as the standard
Text: (§1) Plant roots are a highly proliferative tissue that allows an easy accessible, cheap and short term screening method for plant growth regulators. The results obtained can easily be transferred to the overall effects on a plant of plant growth regulators identified by such a system. By using this root assay one is enabled to determine the effect of a seed treatment to root growth and/or germination and/or changes in habitat of germinated plants in order to identify the possible use as a yield enhancer. Two seeds of wheat (Triticum aestivum, variety “TRISO”) or 1 seed of maize (Zea mays, variety “LORENZO”) per hole in a plastic tray which contains an architecture of 8×13 holes were placed on compost soil covered with sand. These seeds were treated with 100 μl/ hole, which creates an application volume of approx. 1200 I/ha, of a compound solution at active ingredient rates equivalent to 100, 10 and 1 g a.i./ha of each compound using an robotic application system (Lizzy Spray Robotics). Six replicates in a row of each compound and concentration were done. The outer rim of the above defined plastic tray was untreated to avoid false negative effects and the middle row (No. 7) was used as untreated control. The treated seeds were allowed to dry for approx. 4 hours and subsequently covered with sand and watered. The trays were stored in climate chambers with 14 hours lighting at a temperature of 24° C. (±2) at daytime and 16° C. (±2) at night and relative humidity (rH) of 60% and daily watered. Assessments were done 16 (±2) days post treatment by counting the germinated plants and assessing the phytotoxicity symptoms and percentage. In addition, the roots were washed out and the shoots were cut directly above the seed and the wet roots were placed on dry paper towels for approximately 30 minutes and weighted afterwards. This procedure provides a similar grade of moisture to the roots so that a comparison of the weights is possible. […] The effects observed concerning Root Growth given in column 2 (Root Growth of “100” is set as the standard) are directed to concentrations that are equivalent to 100, 10, 1 g a.i./ha, each.

[2] = system: wheat (Triticum aestivum, variety “TRISO”); assay: Root growth assay, wheat; type: in vivo; settings: for Root Growth: wet root weight 16 days post treatment, Root Growth of 100 set as the standard
Text: as §1

[3] = system: maize hybrid Magister and Zamora; assay: Field trial, seed-treated maize, grain yield; type: in vivo; settings: seed treatment 1 g/100 kg seeds (0.0003 kg/ha)
Text: Maize seeds of maize hybrid Magister and Zamora were seed treated with compound 1.136 at 1 g/100 kg seeds (0.0003 kg/ha). Field trials were set up in a split plot design representing the plants treated with compounds of formula (I) as well as the non-treated control plants.

Question: With `NC(=O)c1nn(-c2c(Cl)cc(C(F)(F)F)cc2Cl)c(N)c1[S+]([O-])C(F)(F)F` (stereo not shown) [Compound 1.136] as the compound, how does the “effect as plant growth regulator in maize (in words)” value [1] read?
Answer: The value was “significant effects of approximately the same size”.

Question: And the “Root Growth” value ([1]; 1 g a.i./ha)?
Answer: The value was 107.

Question: What about the “Root Growth” value ([1]; 10 g a.i./ha) of the same compound?
Answer: Its value is 131.

Question: What about the “Root Growth” value ([1]; 100 g a.i./ha) of the same compound?
Answer: The value was 74.

Question: And the “effect as plant growth regulator in wheat (in words)” value [2]?
Answer: The value was “significant effects of approximately the same size”.

Question: What about the “Root Growth” value ([2]; 1 g a.i./ha) of the same compound?
Answer: Its value is 124.

Question: What about the “Root Growth” value ([2]; 10 g a.i./ha) of the same compound?
Answer: Its value is 75.

Question: What about the “Root Growth” value ([2]; 100 g a.i./ha) of the same compound?
Answer: The value was 58.

Question: What about the “increase in grain yield compared to non-treated control plants” value ([3]; maize hybrid Magister) of the same compound?
Answer: Its value is “up to 119%”.

Question: What about the “increase in grain yield compared to non-treated control plants” value ([3]; maize hybrid Zamora) of the same compound?
Answer: Its value is “up to 131%”.

Question: Which results are given for `CCCCCNC(=O)c1nn(-c2c(Cl)cc(C(F)(F)F)cc2Cl)c(N)c1[S+]([O-])C(F)(F)F` (stereo not shown) [Compound 1.141]?
Answer: effect as plant growth regulator in maize (in words) [1]: remarkable effect; Root Growth ([1]; 1 g a.i./ha): 111; Root Growth ([1]; 10 g a.i./ha): 102; Root Growth ([1]; 100 g a.i./ha): 95; effect as plant growth regulator in wheat (in words) [2]: superior effect; Root Growth ([2]; 1 g a.i./ha): 257; Root Growth ([2]; 10 g a.i./ha): 160; Root Growth ([2]; 100 g a.i./ha): 256

Question: Which results are given for `Nc1c([S+]([O-])C(F)(F)F)c(C(=O)NCC2CCCO2)nn1-c1c(Cl)cc(C(F)(F)F)cc1Cl` (stereo not shown) [Compound 1.144]?
Answer: Root Growth ([2]; 1 g a.i./ha): 170; Root Growth ([2]; 10 g a.i./ha): 115; Root Growth ([2]; 100 g a.i./ha): 110

Question: With `CNc1c([S+]([O-])C(F)(F)F)c(C(=O)N(C)C)nn1-c1c(Cl)cc(C(F)(F)F)cc1Cl` (stereo not shown) [Compound 1.228] as the compound, how does the “Root Growth” value ([1]; 1 g a.i./ha) read?
Answer: The value was 72.

Question: What about the “Root Growth” value ([1]; 10 g a.i./ha) of the same compound?
Answer: The value was 111.

Question: What about the “Root Growth” value ([1]; 100 g a.i./ha) of the same compound?
Answer: Its value is 186.

Question: What does the source list for `Nc1c(SC(F)(F)F)c(C(=O)O)nn1-c1c(Cl)cc(C(F)(F)F)cc1Cl` [Compound 2.10, 5-Amino-1-(2,6-dichloro-4-trifluoromethylphenyl)-4-trifluoromethylthio-1H-pyrazole-3-carboxylic acid]?
Answer: Root Growth ([2]; 1 g a.i./ha): 158; Root Growth ([2]; 10 g a.i./ha): 118; Root Growth ([2]; 100 g a.i./ha): 134

Question: Which melting point does the source give for `CCOc1c(SC(F)(F)F)c(C(N)=O)nn1-c1c(Cl)cc(C(F)(F)F)cc1Cl` [Compound 3.3, 1-(2,6-Dichloro-4-trifluoromethylphenyl)-5-ethoxy-4-trifluoromethylthio-1H-pyrazole-3-carboxylic acid amide] here?
Answer: The melting point was 161 °C.
